Laboratory results published in PubChem BioAssay AID588741 (Johns Hopkins Ion Channel Center, 2011).
Activity calls are given as the source filed them.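 Rule for the calls: active = peak inhibition of the hERG potassium channel flux above 30% at some tested dose, plus a fitted dose response curve; inactive = no inhibition at any dose, or no curve.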

Target: Voltage-gated inwardly rectifying potassium channel KCNH2 (Homo sapiens) (UniProt Q12809)
Assay: hERG channel inhibition, SAR follow-up, selectivity assay for KCNK9 inhibitor project, cell-based, FluxOR thallium flux, CRC set 3 (AID 588741)
Details: hERG-expressing cells, FluxOR thallium flux fluorescence; for flux ratio, lower = inhibition: at 30 µM (top of the series)

Voltage-gated inwardly rectifying potassium channel KCNH2 (Homo sapiens), sequence (Q12809 whole entry, looked up): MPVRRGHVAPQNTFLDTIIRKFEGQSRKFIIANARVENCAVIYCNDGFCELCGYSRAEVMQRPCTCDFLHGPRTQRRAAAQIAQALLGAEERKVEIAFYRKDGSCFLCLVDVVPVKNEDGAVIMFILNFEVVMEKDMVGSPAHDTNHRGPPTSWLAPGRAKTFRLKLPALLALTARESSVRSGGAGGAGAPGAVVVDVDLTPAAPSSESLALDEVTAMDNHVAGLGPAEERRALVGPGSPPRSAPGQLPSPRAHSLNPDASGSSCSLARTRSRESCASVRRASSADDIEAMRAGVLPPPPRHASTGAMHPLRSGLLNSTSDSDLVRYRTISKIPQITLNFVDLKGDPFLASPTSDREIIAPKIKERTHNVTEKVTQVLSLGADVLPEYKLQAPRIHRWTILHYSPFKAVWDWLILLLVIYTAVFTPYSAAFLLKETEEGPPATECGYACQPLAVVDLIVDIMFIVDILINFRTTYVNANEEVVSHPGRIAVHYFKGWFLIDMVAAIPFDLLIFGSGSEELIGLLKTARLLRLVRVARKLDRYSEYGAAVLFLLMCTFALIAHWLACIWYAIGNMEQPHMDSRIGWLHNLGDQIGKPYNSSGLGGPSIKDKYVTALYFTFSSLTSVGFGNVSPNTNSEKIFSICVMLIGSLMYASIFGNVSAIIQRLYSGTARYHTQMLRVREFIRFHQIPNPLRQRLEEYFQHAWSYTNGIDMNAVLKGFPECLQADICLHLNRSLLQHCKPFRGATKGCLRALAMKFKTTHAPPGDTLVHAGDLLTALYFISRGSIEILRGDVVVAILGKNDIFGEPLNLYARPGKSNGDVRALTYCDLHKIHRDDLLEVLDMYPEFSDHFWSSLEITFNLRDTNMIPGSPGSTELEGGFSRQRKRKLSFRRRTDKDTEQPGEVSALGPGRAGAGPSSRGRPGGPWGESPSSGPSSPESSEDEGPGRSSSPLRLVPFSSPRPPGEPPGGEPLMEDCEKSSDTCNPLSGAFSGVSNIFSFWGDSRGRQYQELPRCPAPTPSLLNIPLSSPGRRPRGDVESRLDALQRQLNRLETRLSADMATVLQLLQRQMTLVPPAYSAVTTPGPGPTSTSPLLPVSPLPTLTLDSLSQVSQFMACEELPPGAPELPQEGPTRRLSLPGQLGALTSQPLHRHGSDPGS

For S=c1[nH]nc(-c2ccco2)n1C1CC2CCC1C2 (stereo not drawn), which “flux ratio, lower = inhibition” value is on record?
The value was “inactive”.

CC(C1CC2CCC1C2)n1c(-c2cccnc2)n[nH]c1=S (stereo not drawn) was tested. Which “flux ratio, lower = inhibition” value did it give?
The value was “inactive”.

Which “flux ratio, lower = inhibition” value does the source give for CC(NC(=O)c1ccco1)C1CC2CCC1C2 (stereo not drawn) here?
Its value is “inactive”.

How did the IC50 turn out when CC(C1CC2CCC1C2)n1c(SCC(=O)c2ccccc2)nnc1-c1ccco1 (stereo not drawn) was run?
Its IC50 is 23.9 µM.

With CC(C1CC2CCC1C2)n1c(-c2cccc(N(C)C)c2)n[nH]c1=S (stereo not drawn) as the compound, how does the “flux ratio, lower = inhibition” value read?
Its value is “inactive”.

How did the “flux ratio, lower = inhibition” value turn out when CC(C1CCCCC1)n1c(-c2ccco2)n[nH]c1=S (stereo not drawn) was run?
The value was “inactive”.

Which IC50 does the source give for COc1cccc(C(=O)CSc2nnc(-c3ccco3)n2C(C)C2CC3CCC2C3)c1 (stereo not drawn) here?
The IC50 was 17.2 µM.

How did the “flux ratio, lower = inhibition” value turn out when C[C@@H](C1CCCCC1)n1c(-c2ccco2)n[nH]c1=S was run?
Its value is “inactive”.

For COc1cc(OC)cc(-c2n[nH]c(=S)n2C(C)C2CC3CCC2C3)c1 (stereo not drawn), which “flux ratio, lower = inhibition” value is on record?
Its value is “inactive”.

CC(c1cccc2ccccc12)n1c(-c2ccco2)n[nH]c1=S (stereo not drawn) was tested. Which “flux ratio, lower = inhibition” value did it give?
The value was “inactive”.

How did the “flux ratio, lower = inhibition” value turn out when CC(C1CC2CCC1C2)n1c(SCC(=O)c2ccc(Cl)c(Cl)c2)nnc1-c1ccco1 (stereo not drawn) was run?
The value was “inactive”.

COc1ccc(C(=O)CSc2nnc(-c3ccco3)n2C(C)C2CC3CCC2C3)cc1 (stereo not drawn) was tested. Which IC50 did it give?
Its IC50 is 20.1 µM.

CC(C1CC2CCC1C2)n1c(-c2ccco2)nnc1C(F)(F)F (stereo not drawn) was tested. Which “flux ratio, lower = inhibition” value did it give?
Its value is “inactive”.

CC(C1CC2CCC1C2)n1c(-c2ccco2)n[nH]c1=O (stereo not drawn) was tested. Which “flux ratio, lower = inhibition” value did it give?
Its value is “inactive”.

Which “flux ratio, lower = inhibition” value does the source give for CC(C)c1ccccc1C(=O)Nc1cccc(NC(=O)c2ccccc2OC(F)(F)F)c1 here?
The value was “inactive”.

How did the IC50 turn out when COc1ccc(C(=O)CSc2nnc(-c3ccco3)n2C(C)C2CC3CCC2C3)cc1OC (stereo not drawn) was run?
Its IC50 is 13.6 µM.

For CC(C1CC2CCC1C2)n1c(-c2ccco2)n[nH]c1=S (stereo not drawn), which “flux ratio, lower = inhibition” value is on record?
Its value is “inactive”.

With CC(C1CC2CCC1C2)N(C)C(=O)c1ccco1 (stereo not drawn) as the compound, how does the “flux ratio, lower = inhibition” value read?
The value was “inactive”.

How did the “flux ratio, lower = inhibition” value turn out when CC(C1CC2CCC1C2)n1c(-c2ccncc2)n[nH]c1=S (stereo not drawn) was run?
The value was “inactive”.

For CC(C1C2CCC1CC2)n1c(-c2ccco2)n[nH]c1=S (stereo not drawn), which “flux ratio, lower = inhibition” value is on record?
Its value is “inactive”.

CC(C1CC2CCC1C2)n1c(SC(F)F)nnc1-c1ccco1 (stereo not drawn) was tested. Which “flux ratio, lower = inhibition” value did it give?
The value was “inactive”.

COc1cccc(Cc2n[nH]c(=S)n2C(C)C2CC3CCC2C3)c1 (stereo not drawn) was tested. Which “flux ratio, lower = inhibition” value did it give?
Its value is “inactive”.

Which “flux ratio, lower = inhibition” value does the source give for COc1ccccc1C(=O)Nc1cccc(NC(=O)c2cccc3ccccc23)c1 here?
The value was “inactive”.

How did the “flux ratio, lower = inhibition” value turn out when CC(C1CC2CCC1C2)n1c(-c2cccn2C)n[nH]c1=S (stereo not drawn) was run?
The value was “inactive”.

How did the “flux ratio, lower = inhibition” value turn out when CC(C1CC2CCC1C2)n1c(-c2cccc(F)c2)n[nH]c1=S (stereo not drawn) was run?
The value was “inactive”.

CC(C1CC2CCC1C2)n1c(-c2ccccn2)n[nH]c1=S (stereo not drawn) was tested. Which “flux ratio, lower = inhibition” value did it give?
The value was “inactive”.

For CC(CC1CC2CCC1C2)n1c(-c2ccco2)n[nH]c1=S (stereo not drawn), which “flux ratio, lower = inhibition” value is on record?
The value was “inactive”.

CC(C1CC2CCC1C2)n1c(SCC(=O)c2ccc3c(c2)OCO3)nnc1-c1ccco1 (stereo not drawn) was tested. Which IC50 did it give?
Its IC50 is 3.45 µM.

CC(C1CC2CCC1C2)n1cnnc1-c1ccco1 (stereo not drawn) was tested. Which “flux ratio, lower = inhibition” value did it give?
The value was “inactive”.

For COc1cccc(-c2nnc(S(C)(=O)=O)n2C(C)C2CC3CCC2C3)c1 (stereo not drawn), which “flux ratio, lower = inhibition” value is on record?
Its value is “inactive”.

For S=c1[nH]nc(-c2ccco2)n1CC1CC2CCC1C2 (stereo not drawn), which “flux ratio, lower = inhibition” value is on record?
The value was “inactive”.

How did the “flux ratio, lower = inhibition” value turn out when C[C@H](C1CCCCC1)n1c(-c2ccco2)n[nH]c1=S was run?
Its value is “inactive”.

For COc1ccc(CCSc2nnc(-c3ccco3)n2C(C)C2CC3CCC2C3)cc1OC (stereo not drawn), which IC50 is on record?
The IC50 was 16.7 µM.

With COc1ccccc1C(=O)Nc1cc(NC(=O)c2ccccc2C(C)C)ccc1F as the compound, how does the “flux ratio, lower = inhibition” value read?
Its value is “inactive”.

With CC(C1CC2CCC1C2)n1c(-c2ccccc2F)n[nH]c1=S (stereo not drawn) as the compound, how does the “flux ratio, lower = inhibition” value read?
The value was “inactive”.

For CSc1nnc(-c2ccco2)n1C(C)C1CC2CCC1C2 (stereo not drawn), which “flux ratio, lower = inhibition” value is on record?
Its value is “inactive”.

CC(C1CC2CCC1C2)n1c(-c2cccs2)n[nH]c1=S (stereo not drawn) was tested. Which “flux ratio, lower = inhibition” value did it give?
The value was “inactive”.

How did the IC50 turn out when CC(C1CC2CCC1C2)n1c(SCc2ccccc2)nnc1-c1ccco1 (stereo not drawn) was run?
Its IC50 is 9.77 µM.

For CC(C1CC2CCC1C2)n1c(SCC#N)nnc1-c1cccs1 (stereo not drawn), which “flux ratio, lower = inhibition” value is on record?
The value was “inactive”.

With CC(CCC1CCCC1)n1c(-c2ccco2)n[nH]c1=S (stereo not drawn) as the compound, how does the “flux ratio, lower = inhibition” value read?
The value was “inactive”.

How did the “flux ratio, lower = inhibition” value turn out when CC(C)Oc1ccccc1C(=O)Nc1cccc(NC(=O)c2ccccc2OC(F)(F)F)c1 was run?
The value was “inactive”.

How did the “flux ratio, lower = inhibition” value turn out when COc1cccc(-c2n[nH]c(=S)n2C(C)C2CC3CCC2C3)c1OC (stereo not drawn) was run?
The value was “inactive”.

How did the “flux ratio, lower = inhibition” value turn out when CC(C1CC2CCC1C2)n1c(-c2ccc(N(C)C)cc2)n[nH]c1=S (stereo not drawn) was run?
Its value is “inactive”.
